Target: T1, soluble guanylate cyclase (human GUCYA3/GUCYB3) overexpressed in CHO cells (Homo sapiens, UniProt Q02108+Q02153)
T1 construct: expressed in transfected cells
T1 sequence (Q02108 1-690 partner): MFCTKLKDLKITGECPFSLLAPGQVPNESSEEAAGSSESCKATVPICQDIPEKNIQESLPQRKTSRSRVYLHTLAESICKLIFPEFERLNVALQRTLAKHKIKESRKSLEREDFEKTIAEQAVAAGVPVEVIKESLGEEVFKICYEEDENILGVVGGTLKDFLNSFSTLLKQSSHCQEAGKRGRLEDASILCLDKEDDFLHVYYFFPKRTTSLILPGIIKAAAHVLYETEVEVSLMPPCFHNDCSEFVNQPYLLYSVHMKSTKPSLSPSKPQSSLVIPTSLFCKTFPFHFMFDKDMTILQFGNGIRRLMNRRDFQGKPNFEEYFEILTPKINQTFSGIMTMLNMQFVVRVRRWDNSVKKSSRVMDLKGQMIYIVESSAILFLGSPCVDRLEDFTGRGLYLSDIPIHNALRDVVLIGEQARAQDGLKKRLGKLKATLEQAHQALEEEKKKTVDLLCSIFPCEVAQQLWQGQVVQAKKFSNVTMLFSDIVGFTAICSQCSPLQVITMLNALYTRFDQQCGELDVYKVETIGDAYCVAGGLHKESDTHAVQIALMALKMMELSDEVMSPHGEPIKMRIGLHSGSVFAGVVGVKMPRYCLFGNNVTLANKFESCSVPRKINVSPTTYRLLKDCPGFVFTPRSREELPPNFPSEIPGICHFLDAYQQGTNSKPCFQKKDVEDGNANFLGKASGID
T1 sequence (Q02153 1-619): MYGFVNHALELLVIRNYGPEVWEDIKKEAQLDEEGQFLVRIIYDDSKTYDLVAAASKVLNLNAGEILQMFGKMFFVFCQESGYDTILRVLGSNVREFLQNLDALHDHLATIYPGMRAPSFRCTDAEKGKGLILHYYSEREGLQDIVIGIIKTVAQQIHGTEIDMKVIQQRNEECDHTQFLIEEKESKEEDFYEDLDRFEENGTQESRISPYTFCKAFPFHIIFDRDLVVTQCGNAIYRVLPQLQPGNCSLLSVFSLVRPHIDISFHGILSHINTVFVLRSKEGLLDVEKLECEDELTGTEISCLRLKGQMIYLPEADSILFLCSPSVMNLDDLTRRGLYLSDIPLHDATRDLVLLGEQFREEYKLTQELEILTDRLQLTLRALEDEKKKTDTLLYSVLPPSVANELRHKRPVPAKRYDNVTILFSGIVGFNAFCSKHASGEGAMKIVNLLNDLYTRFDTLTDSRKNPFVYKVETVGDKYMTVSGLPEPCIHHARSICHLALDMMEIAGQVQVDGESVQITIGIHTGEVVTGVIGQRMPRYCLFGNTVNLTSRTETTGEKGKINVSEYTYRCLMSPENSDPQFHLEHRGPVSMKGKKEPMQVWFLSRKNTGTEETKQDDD
Test: CHO cellular assay (cGMP production, HTRF)
Type: cell-based
Details: CHO K1 clone 8E10 overexpressing human sGC, Cisbio HTRF, 1 h room temperature, 1 mM IBMX, 20 uM ODQ, minimum quantification limit 0.5 nM
Method in brief: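 Stable CHO K1 clone expressing human GUCYA3/GUCYB3. Compounds applied 1 h at room temperature in HBSS, 0.1% BSA, 1 mM IBMX, 20 uM ODQ, 0.5% DMSO. cGMP measured by HTRF and interpolated from a standard curve; EC50 from 4-parameter sigmoidal fit.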

Row | EC50 [nM] | SMILES
1 | 2 | Cc1cc(C2CCN(C(=O)CC3CC3)CC2)ccc1OCc1ccsc1-c1cccc(-n2ncc(C(=O)O)c2C(F)(F)F)n1 [Example 11, 1-(6-(3-((4-(1-(2-Cyclopropylacetyl)piperidin-4-yl)-2-methylphenoxy)methyl)thiophen-2-yl)pyridin-2-yl)-5-(trifluoromethyl)-1H-pyrazole-4-carboxylic acid]
2 | ≤ 0.5 | CCC(=O)N1CCC(c2ccc(OCc3ccsc3-c3cccc(-n4ncc(C(=O)O)c4C(F)(F)F)n3)c(Cl)c2)CC1 [Example 7, 1-(6-(3-((2-Chloro-4-(1-propionylpiperidin-4-yl)phenoxy)methyl)thiophen-2-yl)pyridin-2-yl)-5-(trifluoromethyl)-1H-pyrazole-4-carboxylic acid]
3 | 36 | CCc1cc(OCc2cc(C)sc2-c2cccc(-n3ncc(C(=O)O)c3C(F)(F)F)n2)ccc1C1CCN(C(=O)CO)CC1 [Example 12-11, 1-(6-(3-((3-Ethyl-4-(1-(2-hydroxyacetyl)piperidin-4-yl)phenoxy)methyl)-5-methylthiophen-2-yl)pyridin-2-yl)-5-(trifluoromethyl)-1H-pyrazole-4-carboxylic acid]
4 | 430 | Cc1cc(C2CCN(CC3CC3)CC2)ccc1OCc1ccsc1-c1cccc(-n2ncc(C(=O)O)c2C(F)(F)F)n1 [Example 14-2, 1-(6-(3-((4-(1-(Cyclopropylmethyl)piperidin-4-yl)-2-methylphenoxy)methyl)thiophen-2-yl)pyridin-2-yl)-5-(trifluoromethyl)-1H-pyrazole-4-carboxylic acid]
5 | ≤ 0.5 | Cc1cc(CCc2ccc(C3CCN(C(=O)C4CC4)CC3)cc2C)c(-c2cccc(-n3ncc(C(=O)O)c3C(F)(F)F)n2)s1 [Example 25, 1-(6-(3-(4-(1-(Cyclopropanecarbonyl)piperidin-4-yl)-2-methylphenethyl)-5-methylthiophen-2-yl)pyridin-2-yl)-5-(trifluoromethyl)-1H-pyrazole-4-carboxylic acid]
6 | 6 | CCc1cc(NCc2cc(C)sc2-c2cccc(-n3ncc(C(=O)O)c3C(F)(F)F)n2)ccc1C1CCN(C(=O)C2CC2)CC1 [Example 24, 1-(6-(3-(((4-(1-(Cyclopropanecarbonyl)piperidin-4-yl)-3-ethylphenyl)amino)methyl)-5-methylthiophen-2-yl)pyridin-2-yl)-5-(trifluoromethyl)-1H-pyrazole-4-carboxylic acid]
7 | 1 | CCc1nc(OCc2cc(C)sc2-c2cccc(-n3ncc(C(=O)O)c3C(F)(F)F)n2)ccc1C1CCN(C(=O)C2CC2)CC1 [Example 39, 1-(6-(3-(((5-(1-(Cyclopropanecarbonyl)piperidin-4-yl)-6-ethylpyridin-2-yl)oxy)methyl)-5-methylthiophen-2-yl)pyridin-2-yl)-5-(trifluoromethyl)-1H-pyrazole-4-carboxylic acid]
8 | 15 | CCc1cc(OCc2cc(C)sc2-c2cccc(-n3ncc(C(=O)O)c3C(F)(F)F)n2)cnc1C1CCN(C(=O)C2CC2)CC1 [Example 35-14, 1-(6-(3-(((6-(1-(Cyclopropanecarbonyl)piperidin-4-yl)-5-ethylpyridin-3-yl)oxy)methyl)-5-methylthiophen-2-yl)pyridin-2-yl)-5-(trifluoromethyl)-1H-pyrazole-4-carboxylic acid]
9 | ≤ 0.5 | CCc1cc(OCc2cc(C)sc2-c2cccc(-n3ncc(C(=O)O)c3C)n2)ccc1C1CCN(C(=O)N(C)C)CC1 [Example 35-8, 1-(6-(3-((4-(1-(Dimethylcarbamoyl)piperidin-4-yl)-3-ethylphenoxy)methyl)-5-methylthiophen-2-yl)pyridin-2-yl)-5-methyl-1H-pyrazole-4-carboxylic acid]
10 | 15 | CCC(=O)N1CCC(c2ccc(OCc3ccsc3-c3cccc(-n4ncc(C(=O)O)c4C(F)(F)F)n3)c(C(F)(F)F)c2)CC1 [Example 33-2, (6-(3-((4-(1-Propionylpiperidin-4-yl)-2-(trifluoromethyl)phenoxy)methyl)thiophen-2-yl)pyridin-2-yl)-5-(trifluoromethyl)-1H-pyrazole-4-carboxylic acid]
11 | ≤ 0.5 | CCc1c(C(=O)O)cnn1-c1cccc(-c2sc(C)cc2COc2ccc(C3CCN(C(=O)C4CC4)CC3)cc2C)n1 [Example 35-10, 1-(6-(3-((4-(1-(Cyclopropanecarbonyl)piperidin-4-yl)-2-methylphenoxy)methyl)-5-methylthiophen-2-yl)pyridin-2-yl)-5-ethyl-1H-pyrazole-4-carboxylic acid]
12 | 2.4 | CCc1c(C)sc(-c2cccc(-n3ncc(C(=O)O)c3C(F)(F)F)n2)c1COc1ccc(C2CCN(CC(F)(F)F)CC2)cc1C [Example 6-18, 1-(6-(4-Ethyl-5-methyl-3-((2-methyl-4-(1-(2,2,2-trifluoroethyl)piperidin-4-yl)phenoxy)methyl)thiophen-2-yl)pyridin-2-yl)-5-(trifluoromethyl)-1H-pyrazole-4-carboxylic acid]
13 | 91 | Cc1cc(COc2ccc([C@@H]3CCN(C(=O)C4CC4)C[C@H]3O)cc2)c(-c2cccc(-n3ncc(C(=O)O)c3C(F)(F)F)n2)s1 (single isomer, unassigned) [Example 35-6, (+)-trans-1-(6-(3-((4-((3,4)-1-(cyclopropanecarbonyl)-3-hydroxypiperidin-4-yl)phenoxy)methyl)-5-methylthiophen-2-yl)pyridin-2-yl)-5-(trifluoromethyl)-1H-pyrazole-4-carboxylic acid]
14 | 620 | Cc1cc(C2CCN(C(=O)C3CCNC3)CC2)ccc1OCc1ccsc1-c1cccc(-n2ncc(C(=O)O)c2C(F)(F)F)n1 (racemic) [Example 42, (±)-1-(6-(3-((2-Methyl-4-(1-(pyrrolidine-3-carbonyl)piperidin-4-yl)phenoxy)methyl)thiophen-2-yl)pyridin-2-yl)-5-(trifluoromethyl)-1H-pyrazole-4-carboxylic acid]
15 | 1 | Cc1cc(COc2ccc(C3CCN(C(=O)C4CC4)CC3)c(C3CC3)c2)c(-c2cccc(-n3ncc(C(=O)O)c3C(F)(F)F)n2)s1 [Example 35-12, 1-(6-(3-((4-(1-(Cyclopropanecarbonyl)piperidin-4-yl)-3-cyclopropylphenoxy)methyl)-5-methylthiophen-2-yl)pyridin-2-yl)-5-(trifluoromethyl)-1H-pyrazole-4-carboxylic acid]
16 | 5.5 | CCc1cc(COc2ccc(C3CCN(C(=O)OC)CC3)cc2C)c(-c2cccc(-n3ncc(C(=O)O)c3C(F)(F)F)n2)s1 [Example 4-3, 1-(6-(5-Ethyl-3-((4-(1-(methoxycarbonyl)piperidin-4-yl)-2-methylphenoxy)methyl)thiophen-2-yl)pyridin-2-yl)-5-(trifluoromethyl)-1H-pyrazole-4-carboxylic acid]
17 | 2 | CCc1c(C(=O)O)cnn1-c1cccc(-c2sc(C)cc2COc2ccc(C3CCN(CC(F)(F)F)CC3)cc2C)n1 [Example 18-2, 5-Ethyl-1-(6-(5-methyl-3-((2-methyl-4-(1-(2,2,2-trifluoroethyl)piperidin-4-yl)phenoxy)methyl)thiophen-2-yl)pyridin-2-yl)-1H-pyrazole-4-carboxylic acid]
18 | 32 | COC(=O)N1CCC(c2ccc(OCc3ccsc3-c3cccc(-n4ncc(C(=O)O)c4C(F)(F)F)n3)cc2)CC1 [Example 2-2, 1-(6-(3-((4-(1-(Methoxycarbonyl)piperidin-4-yl)phenoxy)methyl)thiophen-2-yl)pyridin-2-yl)-5-(trifluoromethyl)-1H-pyrazole-4-carboxylic acid]
19 | 1.4 | CCCc1cc(OCc2cc(C)sc2-c2cccc(-n3ncc(C(=O)O)c3C(F)(F)F)n2)ccc1C1CCN(C(=O)C2CC2)CC1 [Example 35-15, 1-(6-(3-((4-(1-(Cyclopropanecarbonyl)piperidin-4-yl)-3-propylphenoxy)methyl)-5-methylthiophen-2-yl)pyridin-2-yl)-5-(trifluoromethyl)-1H-pyrazole-4-carboxylic acid]

Source: US9765067B2, “Thiophen-2-yl-pyridin-2-yl-1H-pyrazole-4-carboxylic acid derivatives and the use thereof as soluble guanylate cyclase activators” (Novartis AG, priority 2014, dated 2017)
